The record followed here is patent publication US10166229B2, “Compounds and methods for the treatment of cancer” (The Board of Trustees of the University of Illinois, priority 2005, dated 2019).

The test system of this assay is HL-60 cells. Put plainly: Condensed chromatin staining (Hoechst). Format: cell-based, human. Particulars: HL-60, 20 h, 100 μM. On the procedure: The cells were then washed in PBS buffer followed by the addition of ice-cold 100% ethanol. The cells were fixed overnight at 4° C. Fixed cells were incubated with 2 μg/mL Hoechst-33258 for 30 minutes at room temperature. A drop of cells was then added to a microscope slide and covered with a No. 1 thickness coverslip.

With `C=CCc1cccc(/C=N/NC(=O)CN2CCN(Cc3ccccc3)CC2)c1O` [PAC-1], the chromatin condensation result was “significant chromatin condensation”.
